The text below walks through data of patent US12492208B2, “Crystal of pyrimidine compound” (TAIHO PHARMACEUTICAL CO., LTD., priority 2020, dated 2025).

Where only a bound is given, the exact number is not on record here.

For one assay, the system named is SK-BR-3 cells. The assay can be described thus: Growth inhibitory activity against HER2 expressing cell line. Type of assay: cell-based. The settings on record: Homo sapiens, SK-BR-3, 72 h; 3 days, CellTiter-Glo 2.0. The procedure: SK-BR-3 cells as a HER2 overexpressing human breast cancer cell line were suspended in a McCoy's 5a medium (manufactured by Life Technologies) supplemented with 10% fetal bovine serum. The cell suspension was seeded in each well of a 384-well flat-bottom microplate, and was then cultured in a 5% carbon dioxide gas-containing culture vessel at 37° C. for 1 day. Thereafter, the compound (I) obtained according to the method in Synthesis Example 1 was dissolved in DMSO, and the compound was diluted to 500 times the final concentration in DMSO. The compound in the DMSO solution was diluted with DMSO solution or the medium used in the suspension of the cells, and the obtained solution was then added to each well of the culture plate so that the final concentration of DMSO was 0.2%. The obtained mixture was further cultured in the 5% carbon dioxide gas-containing culture vessel at 37° C. for 3 days. After completion of the culture for 3 days in the presence of the compound, the cells were counted using CellTiter-Glo 2.0 (manufactured by Promega), and the growth inhibition percentage was then calculated according to the following equation. The concentration of the compound, in which the growth of the cells can be inhibited by 50%, was defined as IC50 (nM). […]
(Cellular ATP, detected with luciferase, serves as a proxy for viable cell number.)

Assay [1] addresses T1, recombinant human HER2 exon 20 insertion mutant (A775_G776insYVMA) protein (Homo sapiens, UniProt P04626, INS775YVMA).
T1 construct: purchased SignalChem
As to the kind of experiment: Inhibitory action (in vitro) against HER2 exon 20 insertion mutant phosphorylation activity. The class given is biochemical. The settings on record: pre-incubated 30 minutes, ATP 200 μM, 220 minutes; read-out: HER2ex20insYVMA inhibitory activity IC50 value. An excerpt: In order to determine conditions for a method of measuring the in vitro inhibitory activity of a compound against HER2 exon 20 insertion mutant phosphorylation activity, as in the case of HER2, ProfilerPro Peptide 22 was used as a substrate. A purified recombinant human HER2 exon 20 insertion mutant (A775_G776insYVMA) protein was purchased from SignalChem. Upon the measurement of the inhibitory activity of the compound, first, the compound (I) obtained according to the method in Synthesis Example 1 was diluted stepwise with dimethyl sulfoxide (DMSO). Subsequently, the HER2 exon 20 insertion mutant protein and the compound (I) in DMSO solution (final concentration of DMSO: 5%) were added into a buffer for the kinase reaction (13.5 mM Tris (pH 7.5), 2 mM dithiothreitol, and 0.009% Tween 20), and the obtained mixture was then pre-incubated at 25° C. for 30 minutes. […] Finally, using LabChip (registered trademark) EZ Reader II (PerkinElmer), an unphosphorylated substrate peptide(S) and a phosphorylated peptide (P) were separated and detected according to microchannel capillary electrophoresis. […]

T1 sequence (P04626 with tags, fused parts or gaps INS775YVMA limits assumed): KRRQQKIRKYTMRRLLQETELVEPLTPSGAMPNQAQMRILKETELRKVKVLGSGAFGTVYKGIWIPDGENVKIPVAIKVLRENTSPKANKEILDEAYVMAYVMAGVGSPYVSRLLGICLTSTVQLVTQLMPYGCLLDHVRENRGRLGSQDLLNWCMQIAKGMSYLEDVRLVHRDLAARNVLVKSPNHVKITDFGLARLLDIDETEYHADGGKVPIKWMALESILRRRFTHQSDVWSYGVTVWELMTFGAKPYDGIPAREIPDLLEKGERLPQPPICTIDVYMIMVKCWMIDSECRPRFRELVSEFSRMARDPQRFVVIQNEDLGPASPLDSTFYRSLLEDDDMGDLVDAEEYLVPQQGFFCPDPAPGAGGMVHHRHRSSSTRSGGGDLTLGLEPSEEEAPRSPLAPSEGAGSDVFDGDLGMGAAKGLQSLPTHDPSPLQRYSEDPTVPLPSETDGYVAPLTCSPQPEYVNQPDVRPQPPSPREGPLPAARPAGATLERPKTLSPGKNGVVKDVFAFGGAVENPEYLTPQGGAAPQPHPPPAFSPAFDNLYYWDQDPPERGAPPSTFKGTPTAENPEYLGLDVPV

As for `C=CC(=O)N1C[C@H](n2c(C#CC3CC3)c(C(=O)N[C@H](C)c3ccccc3)c3c(N)ncnc32)C[C@@H]1C` [compound (I), 7-((3R,5S)-1-acryloyl-5-methylpyrrolidin-3-yl)-4-amino-6-(cyclopropylethynyl)-N—((R)-1-phenylethyl)-7H-pyrrolo[2,3-d]pyrimidine-5-carboxamide], the values for the IC50 (with SK-BR-3 cells; in assay [1]) were 6.6 nM and < 0.3 nM, respectively.
